According to ChEMBL document CHEMBL3603819, “Targeting zoonotic viruses: Structure-based inhibition of the 3C-like protease from bat coronavirus HKU4--The likely reservoir host to the human coronavirus that causes Middle East Respiratory Syndrome (MERS)” (Bioorg Med Chem, 2015):

Test system: Pipistrellus bat coronavirus HKU5
Experiment: Inhibition of Bat coronavirus HKU5 3CLpro at 100 uM relative to control
Settings: not given

With O=C(Nc1ccc(N(Cc2ccsc2)C(=O)Cn2nnc3ccccc32)cc1)c1cccs1 the inhibition was 91%.

Test system: not listed separately
Experiment: Inhibition of Bat coronavirus HKU5 3CLpro
Set-up: species or system Pipistrellus bat coronavirus HKU5
Settings: not given

Compound O=C(Nc1ccc(N(Cc2ccsc2)C(=O)Cn2nnc3ccccc32)cc1)c1cccs1 has an IC50 of 0.54 µM.

Test system: Tylonycteris bat coronavirus HKU4
Settings: at 100 µM

Compared with O=C(Nc1ccc(N(Cc2ccsc2)C(=O)Cn2nnc3ccccc32)cc1)c1cccs1, CC(=O)Nc1ccc(N(C(=O)Cn2nnc3ccccc32)C(C(=O)NCc2ccccc2)c2cccc(F)c2)cc1 (configuration not stated) is lower in inhibition: 93% for the first, 32% for the second.

Going from CC(C)(C)NC(=O)C(c1cccnc1)N(C(=O)c1ccco1)c1ccc(-c2ccc[nH]2)cc1 (configuration not stated) to CC(C)(C)NC(=O)C(c1cccnc1)N(C(=O)c1ccco1)c1ccc(-c2cccc(C#N)c2)cc1 (configuration not stated), the inhibition falls from 31% to 16%.

Compared with CC(C)(C)NC(=O)C(c1cccnc1)N(C(=O)c1ccco1)c1ccc(-c2ccc(F)cc2F)cc1 (configuration not stated), CC(C)(C)NC(=O)C(c1cccnc1)N(C(=O)c1ccco1)c1ccc(C(C)(C)C)cc1 (configuration not stated) is lower in inhibition: 16% for the first, 11% for the second.

Compared with CC(C)c1ccc(N(C(=O)Cc2cccc3ccccc23)C(C(=O)NC(C)(C)C)c2cccnc2)cc1 (configuration not stated), CC(C)c1ccc(N(C(=O)Cc2cccnc2)C(C(=O)NC(C)(C)C)c2cccnc2)cc1 (configuration not stated) is higher in inhibition: 26% for the first, 41% for the second.

Compared with CC(C)(C)NC(=O)C(c1cccnc1)N(C(=O)c1ccco1)C12CC3CC(CC(C3)C1)C2 (configuration not stated), CC(C)(C)NC(=O)C(c1cccnc1)N(C(=O)Cc1cccnc1)c1ccc(F)cc1 (configuration not stated) is higher in inhibition: 18% for the first, 47% for the second.

First: CC(C)(C)NC(=O)C(c1ccsc1)N(C(=O)Cn1cnc2ccccc21)c1ccc(NS(C)(=O)=O)cc1 (configuration not stated)
Second: CCC(=O)Nc1ccc(N(C(=O)Cn2cnc3ccccc32)C(C(=O)NC(C)(C)C)c2ccsc2)cc1 (configuration not stated)
The inhibition of the first is lower: 28% for the first, 68% for the second.

Going from CC(C)(C)NC(=O)C(c1cccc(F)c1)N(C(=O)Cn1nnc2ccccc21)C1CC2CCC1C2 (configuration not stated) to CC(C)(C)NC(=O)C(c1cccnc1)N(C(=O)c1ncccn1)c1ccc(C(C)(C)C)cc1 (configuration not stated), the inhibition falls from 15% to 13%.

CC(C)(C)NC(=O)C(c1ccncc1)N(C(=O)c1ccco1)c1ccc(C(C)(C)C)cc1 (configuration not stated) gave an inhibition of 28%.
